Read-outs that look alike come from different tables or passages of the source.
Tests used:
Zymoseptoria tritici = assay: Fungicidal activity: leaf blotch of wheat (SEPTTR), disease control on wheat seedlings; assay type: in vivo; details: for pest or weed control at 100 ppm: high volume application; for pest or weed control at 121.5 g/ha: low volume application, 121.5 g/H
Description: Technical grades of materials were dissolved in acetone, which were then mixed with nine volumes of water (H2O) containing 110 ppm Triton X-100. The fungicide solutions were applied onto wheat seedlings using an automated booth sprayer to run-off. All sprayed plants were allowed to air dry prior to further handling. All fungicides were evaluated using the aforementioned method for their activity vs. all target diseases, unless stated otherwise. Wheat leaf blotch and brown rust activity were also evaluated using track spray applications, in which case the fungicides were formulated as EC formulations, containing 0.1% Trycol 5941 in the spray solutions. Wheat plants (variety Yuma) were grown from seed in a greenhouse in 50% mineral soil/50% soil-less Metro mix until the first leaf was fully emerged, with 7-10 seedlings per pot. These plants were inoculated with an aqueous spore suspension of Zymoseptoria tritici either prior to or after fungicide treatments. After inoculation the plants were kept in 100% relative humidity (one day in a dark dew chamber followed by two to three days in a lighted dew chamber at 20° C.) to permit spores to germinate and infect the leaf. The plants were then transferred to a greenhouse set at 20° C. for disease to develop. When disease symptoms were fully expressed on the 1st leaves of untreated plants, infection levels were assessed on a scale of 0 to 100 percent disease severity. Percent disease control was calculated using the ratio of disease severity on treated plants relative to untreated plants.

Puccinia triticina = assay: Fungicidal activity: wheat brown rust (PUCCRT), disease control on wheat seedlings; assay type: in vivo; details: for pest or weed control at 100 ppm: high volume application; for pest or weed control at 121.5 g/ha: low volume application, 121.5 g/H
Description: Technical grades of materials were dissolved in acetone, which were then mixed with nine volumes of water (H2O) containing 110 ppm Triton X-100. The fungicide solutions were applied onto wheat seedlings using an automated booth sprayer to run-off. All sprayed plants were allowed to air dry prior to further handling. All fungicides were evaluated using the aforementioned method for their activity vs. all target diseases, unless stated otherwise. Wheat leaf blotch and brown rust activity were also evaluated using track spray applications, in which case the fungicides were formulated as EC formulations, containing 0.1% Trycol 5941 in the spray solutions. Wheat plants (variety Yuma) were grown from seed in a greenhouse in 50% mineral soil/50% soil-less Metro mix until the first leaf was fully emerged, with 7-10 seedlings per pot. These plants were inoculated with an aqueous spore suspension of Puccinia triticina either prior to or after fungicide treatments. After inoculation the plants were kept in a dark dew room at 22° C. with 100% relative humidity overnight to permit spores to germinate and infect the leaf. The plants were then transferred to a greenhouse set at 24° C. for disease to develop. Fungicide formulation, application and disease assessment followed the procedures as described in the Example A. Results of the evaluations are shown below in Table 4.

[1] = 24 h, 1 day protectant, read-out: SEPTTR disease control, 1DP, HV activity at 100 ppm
[2] = 24 h, 1 day protectant, read-out: SEPTTR disease control, 1DP, LV activity at 121.5 g/H
[3] = 72 h, 3 day curative, read-out: SEPTTR disease control, 3DC, HV activity at 100 ppm
[4] = 72 h, 3 day curative, read-out: SEPTTR disease control, 3DC, LV activity at 121.5 g/H
[5] = 24 h, 1 day protectant, read-out: PUCCRT disease control, 1DP, HV activity at 100 ppm
[6] = 24 h, 1 day protectant, read-out: PUCCRT disease control, 1DP, LV activity at 121.5 g/H
[7] = 72 h, 3 day curative, read-out: PUCCRT disease control, 3DC, HV activity at 100 ppm
[8] = 72 h, 3 day curative, read-out: PUCCRT disease control, 3DC, LV activity at 121.5 g/H

Compound | pest or weed control at 100 ppm (Zymoseptoria tritici; [1]) | pest or weed control at 121.5 g/ha (Zymoseptoria tritici; [2]) | pest or weed control at 100 ppm (Zymoseptoria tritici; [3]) | pest or weed control at 121.5 g/ha (Zymoseptoria tritici; [4]) | pest or weed control at 100 ppm (Puccinia triticina; [5]) | pest or weed control at 121.5 g/ha (Puccinia triticina; [6]) | pest or weed control at 100 ppm (Puccinia triticina; [7]) | pest or weed control at 121.5 g/ha (Puccinia triticina; [8])
COc1cc[n+]([O-])c(C(=O)N[C@@H](C)C(=O)O[C@@H](C)C(c2ccc(C)cc2C)c2ccc(C)cc2C)c1O [Compound 1, 2-(((S)-1-(((S)-1,1-bis(2,4-dimethylphenyl)propan-2-yl)oxy)-1-oxopropan-2-yl)carbamoyl)-3-hydroxy-4-methoxypyridine 1-oxide] | > 80% | > 80% | > 80% | > 80% | > 80% | > 80% | ≤ 80% | ≤ 80%
COc1cc[n+]([O-])c(C(=O)N[C@@H](C)C(=O)O[C@@H](C)[C@@H](c2ccccc2)c2ccc(F)cc2)c1O [Compound 2] | > 80% | > 80% | > 80% |  | > 80% | > 80% | > 80% | > 80%
COc1ccc(C(c2ccc(OC)cc2F)[C@H](C)OC(=O)[C@H](C)NC(=O)c2c(O)c(OC)cc[n+]2[O-])c(F)c1 [Compound 3] | > 80% | > 80% | ≤ 80% | ≤ 80% | > 80% | > 80% | > 80% | ≤ 80%
COc1ccc(F)c(C(c2cc(OC)ccc2F)[C@H](C)OC(=O)[C@H](C)NC(=O)c2c(O)c(OC)cc[n+]2[O-])c1 [Compound 4] | ≤ 80% |  |  | > 80% | > 80% |  | ≤ 80% | 
COc1cc[n+]([O-])c(C(=O)N[C@@H](C)C(=O)O[C@@H](C)C(c2ccc(Cl)c(Cl)c2)c2ccc(Cl)c(Cl)c2)c1O [Compound 5] | > 80% | > 80% | ≤ 80% | ≤ 80% |  | ≤ 80% |  | 
COc1cc[n+]([O-])c(C(=O)N[C@@H](C)C(=O)O[C@@H](C)C(c2ccc(Cl)c(F)c2)c2ccc(Cl)c(F)c2)c1O [Compound 6] | > 80% | > 80% | > 80% | > 80% | > 80% | ≤ 80% |  | 
COc1cc[n+]([O-])c(C(=O)N[C@@H](C)C(=O)O[C@@H](C)C(c2ccc(Cl)c(C)c2)c2ccc(Cl)c(C)c2)c1O [Compound 7] |  | > 80% |  | > 80% |  | > 80% |  | ≤ 80%
CC[C@H](OC(=O)[C@H](C)NC(=O)c1c(O)c(OC)cc[n+]1[O-])[C@H](Oc1ccccc1)C(C)C [Compound 8] |  |  |  | ≤ 80% |  | ≤ 80% |  | > 80%
COc1cc[n+]([O-])c(C(=O)N[C@@H](C)C(=O)O[C@@H](C)C(O)(c2ccc(Cl)c(F)c2)c2ccc(Cl)c(F)c2)c1O [Compound 9] | > 80% | > 80% |  |  |  |  |  | 
COc1cc[n+]([O-])c(C(=O)N[C@@H](C)C(=O)O[C@H](C(C)C)[C@H](C)Oc2ccccc2)c1O [Compound 10] | ≤ 80% | > 80% |  |  | > 80% | > 80% | > 80% | > 80%
COc1cc[n+]([O-])c(C(=O)N[C@@H](C)C(=O)O[C@@H](C)C(O)(c2ccc(Cl)c(Cl)c2)c2ccc(Cl)c(Cl)c2)c1O [Compound 11] | > 80% | > 80% |  | ≤ 80% |  |  |  | 
COc1cc[n+]([O-])c(C(=O)N[C@@H](C)C(=O)O[C@@H](C)C(c2ccc(F)c(F)c2OC)c2ccc(F)c(F)c2OC)c1O [Compound 12] | > 80% | > 80% | > 80% | > 80% | > 80% | > 80% | ≤ 80% | ≤ 80%
COc1cc[n+]([O-])c(C(=O)N[C@@H](C)C(=O)O[C@@H](C)C(c2ccc(F)cc2)c2ccc(F)cc2)c1O [Compound 13] | > 80% | > 80% | > 80% | > 80% | > 80% | > 80% | > 80% | ≤ 80%
COc1cc[n+]([O-])c(C(=O)N[C@@H](C)C(=O)O[C@@H](C)C(c2ccc(C)c(C)c2)c2ccc(C)c(C)c2)c1O [Compound 15] |  | > 80% |  | > 80% |  | ≤ 80% |  | ≤ 80%
COc1cc[n+]([O-])c(C(=O)N[C@@H](C)C(=O)O[C@@H](C)C(c2ccc(F)c(C)c2)c2ccc(F)c(C)c2)c1O [Compound 17] |  | > 80% |  | > 80% |  | ≤ 80% |  | ≤ 80%
COc1cc(C(c2ccc(C)c(OC)c2)[C@H](C)OC(=O)[C@H](C)NC(=O)c2c(O)c(OC)cc[n+]2[O-])ccc1C [Compound 18] |  | > 80% |  | > 80% |  | ≤ 80% |  | ≤ 80%
COc1cc[n+]([O-])c(C(=O)N[C@@H](C)C(=O)O[C@@H](C)C(c2ccc(C)c(F)c2)c2ccc(C)c(F)c2)c1O [Compound 19] |  | > 80% |  | > 80% |  | ≤ 80% |  | ≤ 80%
COc1cc[n+]([O-])c(C(=O)N[C@@H](C)C(=O)O[C@@H](C)C(c2ccc(F)c(F)c2)c2ccc(F)c(F)c2)c1O [Compound 21] |  | > 80% |  | > 80% |  |  |  | ≤ 80%
COc1cc[n+]([O-])c(C(=O)N[C@@H](C)C(=O)O[C@@H](C)[C@@H](c2ccccc2)c2ccc(F)cc2C)c1O [Compound 22] | > 80% | > 80% | > 80% | > 80% | > 80% | > 80% | > 80% | > 80%
COc1cc(F)ccc1[C@@H](c1ccc(F)c(C)c1)[C@H](C)OC(=O)[C@H](C)NC(=O)c1c(O)c(OC)cc[n+]1[O-] [Compound 23] | > 80% |  | > 80% |  | > 80% |  | > 80% | 
COc1cc[n+]([O-])c(C(=O)N[C@@H](C)C(=O)O[C@@H](C)C(C)(c2ccccc2)c2ccccc2)c1O [Compound 27] | > 80% | ≤ 80% | > 80% | ≤ 80% |  |  |  | 
COc1cc[n+]([O-])c(C(=O)N[C@@H](C)C(=O)O[C@@H](C)C(c2cccc(F)c2)c2cccc(F)c2)c1O [Compound 35] |  | ≤ 80% |  | ≤ 80% |  |  |  | 
COc1cc[n+]([O-])c(C(=O)N[C@@H](C)C(=O)O[C@@H](C)C(c2cccc(OC)c2OC)c2cccc(OC)c2OC)c1O [Compound 40] |  |  |  | ≤ 80% |  |  |  | 
COc1ccc(F)cc1C(c1cc(F)ccc1OC)[C@H](C)OC(=O)[C@H](C)NC(=O)c1c(O)c(OC)cc[n+]1[O-] [Compound 41] |  | ≤ 80% |  | ≤ 80% |  |  |  | 

Source: patent US10111432B2, “Picolinamide N-oxide compounds with fungicidal activity” (Dow AgroSciences LLC, priority 2016, dated 2018)
